Data: patent US20200069775A1, “BRAIN OSTEOCALCIN RECEPTOR AND COGNITIVE DISORDERS” (The Trustees of Columbia University in the City of New York, priority 2017, published 2020)

Key:
[1] = system: Bdnf accumulation in the hippocampus; assay: BDNF accumulation (Western blot) in hippocampus after peripheral osteocalcin; type: in vivo, mouse; settings: WT mice injected peripherally, 16 hours (FIG. 13h)
Description: FIG. 13. Exogenous osteocalcin improves anxiety and cognition in aged WT mice. (Panel a) EPMT performed in aged mice receiving plasma from aged, young WT, or young Ocn−/− mice, and aged WT mice receiving plasma from young Ocn−/− supplemented with 90 ng/g osteocalcin. Number of entries and time spent (s) in the open arms were scored. (Panel b) NOR performed in aged WT mice receiving plasma from WT mice either aged or young, or from young Ocn−/− mice or from young Ocn−/− supplemented with 90 ng/g osteocalcin. Preference index (time spent with novel object/total exploration time) was measured for each group. (Panel c) BDNF accumulation (representative Western blot, left) and quantification of band intensities (right) in hippocampi of aged WT mice receiving plasma from WT, either aged or young, or from young Ocn−/− mice. α-Tubulin is used as a loading control. (Panel d) DLT performed in 12 and 16 month-old WT mice treated with vehicle or osteocalcin. Number of entries in the lit compartment was measured. (Panel e) EPMT performed in 12 and 16 month-old WT mice treated with vehicle or osteocalcin. Time spent in the lit compartment and open arms was measured. (Panel f) MWMT performed over 10 days in 12 and 16 month-old WT mice treated with vehicle or osteocalcin. […] Preference index (time spent with novel object/total exploration time) was measured for each group. […]

[2] = system: mouse primary hindbrain neurons (MPHN); assay: Calcium flux in mouse primary hindbrain neurons; type: cell-based
Description: For calcium imaging, primary hindbrain neurons seeded on 12 mm coverslips were allowed the appropriate time to form structural networks. These cultures were washed with HBSS and loaded with 2.5 μM FURA-2, AM calcium indicator for 45 minutes at room temperature, according to the manufacturer's protocol. Cells were then washed to remove excess indicator and incubated for 30 minutes to allow internalized esters to become de-esterified. 30 ng/ml of osteocalcin was prepared with the control buffer of 1× HBBS supplemented with 10 mM HEPES buffer and 2 mM CaCl2. Using a Zeiss microscope with a perfusion system, coverslips were first perfused with control and osteocalcin. After each stimulation, cells were depolarized with 50 mM KCl to determine the percentage of live cells being imaged. All treatments were recorded using two-photon laser scanning microscopy by Prairie Technologies and analyzed by Z axis profile plotting using ImageJ.
To determine if osteocalcin acts directly on neurons to modulate neurotransmitter synthesis, several types of assays were performed. First, brainstem and midbrain explants from WT and Gprc6a^−/− mice were generated. […] Third, to further confirm that osteocalcin signals in neurons of the hindbrain, calcium flux in MPHN treated with undercarboxylated or carboxylated osteocalcin (FIG. 3F) was measured.

16 month old WT mice = assay: ICV delivery in aged WT mice, modified Novel Object Recognition test; type: in vivo, mouse; settings: ICV 10 ng/hr, one month
Description: ICV pumps delivering (10 ng/hr) recombinant uncarboxylated full-length mouse osteocalcin were implanted in 16 month old WT mice. After an infusion period of one month, the mice were subjected to a modified version of the Novel Object Recognition test, to assay memory and hippocampal function. Briefly, mice were given five 5 minute exposures, with 3 minute resting intervals between exposures, to a novel arena containing two objects. During exposures 1-4, mice were habituated to these two objects, which elicited equal amounts of exploration. In the fifth exposure, one of the objects was replaced with a novel object.

osteocalcin: Recombinant osteocalcin bacterially produced, cleaved from the GST subunit; completely undercarboxylated at all three sites; full-length mouse osteocalcin (YLGASVPSPDPLEPTREQCELNPACDELSDQYGLKTAYKRIYGITI)
Bdnf accumulation in the hippocampi [1]: increased
calcium fluxes [2]: induced changes in calcium fluxes
discrimination between novel and constant objects (16 month old WT mice): able to discriminate between the novel and constant objects
time exploring the novel object (Novel Object Recognition) (16 month old WT mice): spent less time exploring the novel object than mice treated with vehicle alone
